The record followed here is patent publication US5834284A, “N-acetylglucosaminyl transferase gene coding therefor and process for production thereof” (Suntory Limited, priority 1992, dated 1998).

The structures appear in SMILES notation.

The target in the assay is T1, GnT-V (β1,6-N-acetylglucosaminyl transferase) (Homo sapiens, UniProt Q09328).
T1 construct: 73/60 kDa
T1 sequence (Q09328 31-741): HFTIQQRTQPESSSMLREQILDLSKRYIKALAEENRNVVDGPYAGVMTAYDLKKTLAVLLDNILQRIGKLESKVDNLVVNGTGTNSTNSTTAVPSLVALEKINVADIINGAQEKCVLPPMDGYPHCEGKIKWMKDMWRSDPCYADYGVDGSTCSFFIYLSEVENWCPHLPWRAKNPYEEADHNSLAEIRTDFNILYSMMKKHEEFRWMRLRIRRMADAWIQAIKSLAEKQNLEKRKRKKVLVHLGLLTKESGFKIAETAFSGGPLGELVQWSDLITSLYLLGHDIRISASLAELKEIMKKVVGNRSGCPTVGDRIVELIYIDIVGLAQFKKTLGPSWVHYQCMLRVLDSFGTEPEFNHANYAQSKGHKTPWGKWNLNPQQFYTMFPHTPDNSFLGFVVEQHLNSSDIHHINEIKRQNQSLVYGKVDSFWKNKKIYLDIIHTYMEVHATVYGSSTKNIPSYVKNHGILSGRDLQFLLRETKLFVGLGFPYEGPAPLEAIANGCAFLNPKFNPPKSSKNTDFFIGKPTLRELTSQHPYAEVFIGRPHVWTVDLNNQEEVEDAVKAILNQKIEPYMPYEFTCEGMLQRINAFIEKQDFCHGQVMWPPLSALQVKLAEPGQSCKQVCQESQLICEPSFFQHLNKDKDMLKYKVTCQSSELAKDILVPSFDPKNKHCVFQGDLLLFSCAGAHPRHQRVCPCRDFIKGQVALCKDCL
The assay can be described thus: GnT-V enzyme activity assay with fluorescence-labeled sugar acceptors, product separated by HPLC. In kind it is biochemical. Particulars: for Relative reaction rate: acceptor 70 μM, purified GnT-V 0.1 mg protein/ml, GnGn-bi-PA = 100; for reactivity relative to GnGn-bi-PA acceptor taken as 100%: substrate specificity. From the text:
An enzyme activity can be easily assayed by labeling an acceptor with a radioisotope or with fluorescent substance, adding the enzyme and separating the reaction product by high performance liquid chromatography (HPLC). More specifically, the method reported by Tanigichi et al. (Taniguchi, N., Nishikawa, A., Fujii, S., and Gu. J., Methods Enzymol. 179, 397-408 (1989); Nishikawa, H., Gu, J., Fujii, S., and Tanigichi, N., Biochem. Biophys. Acta, 1035, 313-318 (1990)) may be followed.
Namely, the enzyme activity of GnT-V can be assayed using GnGn-2-aminopyridine (GnGn-bi-PA) as an acceptor, and UDP-GluNAc (Sigma) as a donor. Activity is shown by an amount of transferred N-acetylglucosamine/hour/mg protein. Note, an amount of protein can be measured according to a reported method (Redinbaugh, M. G., and Turley, R. B., Anal. Biochem. 153, 267-271 (1986)) using a BCA kit (Pierce Chemical Company, Rockford, Ill.) and using bovine serum albumin as a standard.
Substrate specificity was determined using the following compound as sugar acceptors according to the above-mentioned enzyme activity measuring method. [drawing 1]
GnGnF--, GnGF--, GGnF--, Gn(Gn)GnF--, Gn(Gn)Gn--, GG--, GnGn--, MM-- and GnM-- were isolated from the bovine IgG treated with anhydrous hydrazine and then labeled with a fluorescence label according to Hase et al. method (Hase, S., Ibuki, T., and Ikehara, T., J. Biochem. 95, 197-203 (1984). The purified GnT-V was diluted with PBS buffer to a final concentration of 0.1 mg protein/ml, and then reacted with each fluorescence-labeled sugar acceptor. A result is shown in Table 2.

As for `CC(=O)N[C@H]1[C@H](O[C@@H]([C@H](O)[C@H](CNc2ccccn2)NC(C)=O)[C@H](O)CO[C@@H]2O[C@@H](C)[C@@H](O)[C@@H](O)[C@@H]2O)O[C@H](CO)[C@@H](O[C@@H]2O[C@H](CO[C@H]3O[C@H](CO)[C@@H](O)[C@H](O)[C@@H]3O[C@@H]3O[C@H](CO)[C@@H](O)[C@H](O)[C@H]3NC(C)=O)[C@@H](O)[C@H](O[C@H]3O[C@H](CO)[C@@H](O)[C@H](O)[C@@H]3O[C@@H]3O[C@H](CO)[C@@H](O)[C@H](O)[C@H]3NC(C)=O)[C@@H]2O)[C@@H]1O` [GnGnF-bi-PA, GlcNAcβ1-2Manα1-3-(GlcNAcβ1-2Manα1-6)Manβ1-4GlcNAcβ1-4GlcNAc(Fucα1-6)-2-aminopyridine], the “reaction of the enzyme with acceptor (qualitative)” value (shortened to “reaction of the enzyme”) was “reacts”, the Relative reaction rate came out at 78 and the “reactivity relative to GnGn-bi-PA acceptor taken as 100%” value is on record as “about 78%”.

`CC(=O)N[C@H]1[C@H](O[C@@H]([C@H](O)[C@H](CNc2ccccn2)NC(C)=O)[C@H](O)CO)O[C@H](CO)[C@@H](O[C@@H]2O[C@H](CO[C@H]3O[C@H](CO)[C@@H](O)[C@H](O)[C@@H]3O[C@@H]3O[C@H](CO)[C@@H](O[C@@H]4O[C@H](CO)[C@H](O)[C@H](O)[C@H]4O)[C@H](O)[C@H]3NC(C)=O)[C@@H](O)[C@H](O[C@H]3O[C@H](CO)[C@@H](O)[C@H](O)[C@@H]3O[C@@H]3O[C@H](CO)[C@@H](O[C@@H]4O[C@H](CO)[C@H](O)[C@H](O)[C@H]4O)[C@H](O)[C@H]3NC(C)=O)[C@@H]2O)[C@@H]1O` [GG-bi-PA, Galβ1-4GlcNAcβ1-2Manα1-3(Galβ1-4GlcNAcβ1-2Manα1-6)Manβ1-4GlcNAcβ1-4GlcNAc-2-aminopyridine] yielded a Relative reaction rate of 0.

Turning to `CC(=O)N[C@H]1[C@H](O[C@@H]([C@H](O)[C@H](CNc2ccccn2)NC(C)=O)[C@H](O)CO[C@@H]2O[C@@H](C)[C@@H](O)[C@@H](O)[C@@H]2O)O[C@H](CO)[C@@H](O[C@@H]2O[C@H](CO[C@H]3O[C@H](CO)[C@@H](O)[C@H](O)[C@@H]3O[C@@H]3O[C@H](CO)[C@@H](O)[C@H](O)[C@H]3NC(C)=O)[C@@H](O[C@@H]3O[C@H](CO)[C@@H](O)[C@H](O)[C@H]3NC(C)=O)[C@H](O[C@H]3O[C@H](CO)[C@@H](O)[C@H](O)[C@@H]3O[C@@H]3O[C@H](CO)[C@@H](O)[C@H](O)[C@H]3NC(C)=O)[C@@H]2O)[C@@H]1O` [Gn(Gn)GnF-bi-PA, GlcNAcβ1-2Manα1-2Manα1-6)-Manβ1-4GlcNAcβ1-4GlcNAc(Fucα1-6)2-aminopyridine], the Relative reaction rate turned out to be 0.

Take `[Mn+2]` [Mn^2+]: the “requirement for expression of GnT-V activity” value is on record as “not necessary”.

Take `CC(=O)N[C@H]1[C@H](O[C@H]2[C@@H](O)[C@@H](CO)O[C@@H](O[C@@H]([C@H](O)[C@@H](O)CNc3ccccn3)[C@H](O)CO)[C@@H]2O)O[C@H](CO)[C@@H](O)[C@@H]1O` [Lacto-N-triaose-PA, GlcNAcβ1-3Galβ1-4Glc-2-aminopyridine]: the Relative reaction rate worked out at 0.

`O=C(O)CN(CCN(CC(=O)O)CC(=O)O)CC(=O)O` [EDTA]: the “inhibition of GnT-V activity” value (in the presence of 20 mM EDTA) is recorded as “not inhibited”.

Molecule `CC(=O)N[C@H]1[C@H](O[C@@H]([C@H](O)[C@H](CNc2ccccn2)NC(C)=O)[C@H](O)CO)O[C@H](CO)[C@@H](O[C@@H]2O[C@H](CO[C@H]3O[C@H](CO)[C@@H](O)[C@H](O)[C@@H]3O)[C@@H](O)[C@H](O[C@H]3O[C@H](CO)[C@@H](O)[C@H](O)[C@@H]3O)[C@@H]2O)[C@@H]1O` [MM-PA, Manα1-3Manα1-6)Manβ1-4GlcNAcβ1-4GlcNAc-2-aminopyridine] gave a Relative reaction rate of 0.

Turning to `CC(=O)N[C@H]1[C@H](O[C@@H]([C@H](O)[C@H](CNc2ccccn2)NC(C)=O)[C@H](O)CO)O[C@H](CO)[C@@H](O[C@@H]2O[C@H](CO[C@H]3O[C@H](CO)[C@@H](O)[C@H](O)[C@@H]3O[C@@H]3O[C@H](CO)[C@@H](O)[C@H](O)[C@H]3NC(C)=O)[C@@H](O)[C@H](O[C@H]3O[C@H](CO)[C@@H](O[C@@H]4O[C@H](CO)[C@@H](O)[C@H](O)[C@H]4NC(C)=O)[C@H](O)[C@@H]3O[C@@H]3O[C@H](CO)[C@@H](O)[C@H](O)[C@H]3NC(C)=O)[C@@H]2O)[C@@H]1O` [GnGnGn-tri-PA, GlcNAcβ1-2(GlcNAcβ1-4)Manα1-3(GlcNAcβ1-2Manα1-6)-Manβ1-4GlcNAcβ1-4GlcNAc-2-aminopyridine], the “reaction of the enzyme” value is reported as “reacts”, the Relative reaction rate was found to be 125 and the “reactivity relative to GnGn-bi-PA acceptor taken as 100%” value is reported as “about 125%”.

In the case of `CC(=O)N[C@H]1[C@H](O[C@@H]([C@H](O)[C@H](CNc2ccccn2)NC(C)=O)[C@H](O)CO[C@@H]2O[C@@H](C)[C@@H](O)[C@@H](O)[C@@H]2O)O[C@H](CO)[C@@H](O[C@@H]2O[C@H](CO[C@H]3O[C@H](CO)[C@@H](O)[C@H](O)[C@@H]3O[C@@H]3O[C@H](CO)[C@@H](O)[C@H](O)[C@H]3NC(C)=O)[C@@H](O)[C@H](O[C@H]3O[C@H](CO)[C@@H](O)[C@H](O)[C@@H]3O[C@@H]3O[C@H](CO)[C@@H](O[C@@H]4O[C@H](CO)[C@H](O)[C@H](O)[C@H]4O)[C@H](O)[C@H]3NC(C)=O)[C@@H]2O)[C@@H]1O` [GnGF-bi-PA, Galβ1-4GlcNAcβ1-2Manα1-3(GlcNAcβ1-2Manα1-6)Manβ1-4GlcNAcβ1-4GlcNAc(Fucα1-6)-2-aminopyridine], the Relative reaction rate turned out to be 3.

`CC(=O)N[C@H]1[C@H](O[C@H]2[C@@H](O)[C@@H](CO)O[C@@H](O[C@@H]([C@H](O)[C@@H](O)CNc3ccccn3)[C@H](O)CO)[C@@H]2O)O[C@H](CO)[C@@H](O[C@@H]2O[C@H](CO)[C@H](O)[C@H](O)[C@H]2O)[C@@H]1O` [Lacto-N-neotetraose-PA, Galβ1-4GlcNAcβ1-3Galβ1-4Glc-2-aminopyridine]: the Relative reaction rate was 0.

As to `CC(=O)N[C@H]1[C@H](O[C@@H]([C@H](O)[C@H](CNc2ccccn2)NC(C)=O)[C@H](O)CO)O[C@H](CO)[C@@H](O[C@@H]2O[C@H](CO[C@H]3O[C@H](CO)[C@@H](O)[C@H](O)[C@@H]3O[C@@H]3O[C@H](CO)[C@@H](O)[C@H](O)[C@H]3NC(C)=O)[C@@H](O[C@@H]3O[C@H](CO)[C@@H](O)[C@H](O)[C@H]3NC(C)=O)[C@H](O[C@H]3O[C@H](CO)[C@@H](O)[C@H](O)[C@@H]3O[C@@H]3O[C@H](CO)[C@@H](O)[C@H](O)[C@H]3NC(C)=O)[C@@H]2O)[C@@H]1O` [Gn(Gn)Gn-bi-PA, GlcNAcβ1-2Manα1-2Manα1-6)-Manβ1-4GlcNAcβ1-4GlcNAc-2-aminopyridine], the Relative reaction rate came to 0.

As for `CC(=O)N[C@H]1[C@H](O[C@@H]([C@H](O)[C@H](CNc2ccccn2)NC(C)=O)[C@H](O)CO)O[C@H](CO)[C@@H](O[C@@H]2O[C@H](CO[C@H]3O[C@H](CO)[C@@H](O)[C@H](O)[C@@H]3O[C@@H]3O[C@H](CO)[C@@H](O)[C@H](O)[C@H]3NC(C)=O)[C@@H](O)[C@H](O[C@H]3O[C@H](CO)[C@@H](O)[C@H](O)[C@@H]3O)[C@@H]2O)[C@@H]1O` [GnM-PA, Manα1-3(GlcNAcβ1-2Manα1-6)Manβ1-4GlcNAcβ1-4GlcNAc-2-aminopyridine], the “reaction of the enzyme” value is “reacts”, the Relative reaction rate was found to be 66 and the “reactivity relative to GnGn-bi-PA acceptor taken as 100%” value was “about 66%”.
